Tests used:
TEM-1 beta-lactamase = target: T1, TEM-1 beta-lactamase (Escherichia coli, UniProt P62593); assay type: biochemical; conditions: for reduction of the TEM-1 activity: inhibitor 21.5 μM final
T1 construct: made in house
Method: A screening of new TEM-1 ? -lactamase inhibitors was carried out by the process of the invention. This enzyme was expressed in vitro as described by Zubay by using 300 μg of mRNA in a final translation volume of 5 ml. […] Then 3 μl of the translation mixture were added in each microtitration plaque well and the mixture was incubated 3 minutes at 25° C. The volume was then completed to 58 μl with a revelation solution (final concentration: NaP 40 mM pH 7.0, 100 μg/ml of nitrocephine and 0.25 mM DNSO). The reaction was followed by spectrophotometry at 486 nm. Three controls were carried out: one without translation extract (therefore without enzyme), one with the substrate alone, and one without any potential inhibitor.

native TEM-1 enzyme = target: T2, native TEM-1 enzyme (Escherichia coli, UniProt P62593); assay: Characterization of inhibitor on native TEM-1 enzyme expressed in vitro, nitrocephine test; assay type: biochemical; conditions: read-out: inhibition of native TEM-1 enzyme
T2 construct: made in house
Method: For this 5 μl of a translation mixture expressing either the native enzyme or one of the two mutants were separately incubated at 25° C. for 3 minutes in a final volume of 500 μl of buffer I (final concentration: NaP 50 mM pH 7.0, 1.5 μM potential inhibitor #1). Then 100 μg/ml of nitrocephine and 0.25 mM final of DMSO were added, and the reaction was followed by spectrophotometry at 486 nm. The obtained results were expressed in maximum activity percentage measured on the enzyme in the absence of inhibitor.

T1 sequence (P62593 24-286 limits assumed): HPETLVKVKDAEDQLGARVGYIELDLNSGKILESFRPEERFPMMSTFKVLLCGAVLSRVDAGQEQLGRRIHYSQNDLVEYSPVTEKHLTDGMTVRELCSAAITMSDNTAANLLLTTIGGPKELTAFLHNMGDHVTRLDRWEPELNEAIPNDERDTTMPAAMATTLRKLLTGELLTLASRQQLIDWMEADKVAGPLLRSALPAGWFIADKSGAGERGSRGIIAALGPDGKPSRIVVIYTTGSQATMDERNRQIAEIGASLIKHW
T2 sequence (P62593 24-286 limits assumed): as above

| Structure (SMILES) | reduction of the TEM-1 activity versus control without inhibitor (TEM-1 beta-lactamase; inhibitor 0.4 μM final, 3 minutes at 25° C. preincubation) | reduction of the TEM-1 activity (TEM-1 beta-lactamase) | inhibition at 1.5 µM (native TEM-1 enzyme) |
| --- | --- | --- | --- |
| O=C(O)[C@H]1/C(=C/CO)O[C@@H]2CC(=O)N21 [inhibitor #1, clavulanic acid] | 52% | 80% | 87% |
| CC1(C)[C@H](C(=O)O)N2C(=O)C[C@H]2S1(=O)=O [inhibitor #2, sulbactam] |  | 73% |  |

Reference: patent US6818396B1, “Process for determination of the activity of a substance using an in vitro functional test” (priority 2000, dated 2004)
